This note sets out measurements from the supplement of paper PMC10307832.

Experiment in all cases: relative viability (nuclei count vs DMSO), 5 days (fraction); higher = more cells survive
Compound in assay [1]: COc1ccc(-c2ccc3c(N4CCOC[C@@H]4C)nc(N4CCOC[C@@H]4C)nc3n2)cc1CO [AZD8055] + Cc1cc(Nc2cc(N3CCN(C)CC3)nc(Sc3ccc(NC(=O)C4CC4)cc3)n2)n[nH]1 [Tozasertib] (partner 0.1 µM)
The essentials: (§1)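 Lung cancer cell lines were pin-tool dosed in 1536-well plates on the day after seeding, with either a lone drug or a fixed anchor-drug dose plus five library-drug doses (not always all listed) in √10 steps. Nuclei were counted on 4× images after 5 days. Relative viability is the ratio of treated-well to vehicle-well nuclei counts, with each value a median of duplicate plates.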

Compound in assay [2]: COc1ccc(-c2ccc3c(N4CCOC[C@@H]4C)nc(N4CCOC[C@@H]4C)nc3n2)cc1CO [AZD8055] + COc1cccc2cc(-c3nc([C@H]4CC[C@H](C(=O)O)CC4)n4ncnc(N)c34)[nH]c12 [OSI-027] (partner 0.5 µM)
Summed up: as §1

Compound in assay [3]: COc1ccc(-c2ccc3c(N4CCOC[C@@H]4C)nc(N4CCOC[C@@H]4C)nc3n2)cc1CO [AZD8055] + C[C@]1(O)C[C@@H](c2nc(-c3ccc4ccc(-c5ccccc5)nc4c3)c3c(N)nccn32)C1 [Linsitinib] (partner 1 µM)
Summed up:
as §1

Compound in assay [4]: COc1ccc(-c2ccc3c(N4CCOC[C@@H]4C)nc(N4CCOC[C@@H]4C)nc3n2)cc1CO [AZD8055] + C[C@@H](Oc1cc(-c2cnn(C3CCNCC3)c2)cnc1N)c1c(Cl)ccc(F)c1Cl [Crizotinib] (partner 1 µM)
Summed up: as §1

Turning to NCI-H1755, the relative viability in assay [1] (first compound 0.01 µM) was determined as 0.551; in assay [1] (first compound 0.03162 µM), 0.555; in assay [1] (first compound 0.1 µM) it was 0.449; in assay [1] (first compound 0.3162 µM), 0.429; in assay [1] (first compound 1 µM), 0.437; in assay [2] (first compound 0.01 µM), 0.752. Further, the relative viability in assay [2] (first compound 0.03162 µM) worked out at 0.698; in assay [2] (first compound 0.1 µM) it was 0.649; in assay [2] (first compound 0.3162 µM) it was 0.544; in assay [2] (first compound 1 µM), 0.537; in assay [3] (first compound 0.01 µM) it was 0.95; in assay [3] (first compound 0.03162 µM), 0.867. Moreover, the relative viability in assay [3] (first compound 0.1 µM) is 0.764; in assay [3] (first compound 0.3162 µM), 0.474; in assay [3] (first compound 1 µM), 0.403; in assay [4] (first compound 0.01 µM), 0.824; in assay [4] (first compound 0.03162 µM), 0.762; in assay [4] (first compound 0.1 µM), 0.652. The results for the relative viability in assay [4] (first compound 0.3162 µM) and in assay [4] (first compound 1 µM) were 0.397 and 0.393, respectively.

For the cell line NCI-H2228, the relative viability in assay [1] (first compound 0.01 µM) was 0.222; in assay [1] (first compound 0.03162 µM), 0.296; in assay [1] (first compound 0.1 µM) it was 0.155; in assay [1] (first compound 0.3162 µM) it was 0.143; in assay [1] (first compound 1 µM), 0.158; in assay [2] (first compound 0.01 µM) it was 0.548. In addition, the relative viability in assay [2] (first compound 0.03162 µM) was found to be 0.446; in assay [2] (first compound 0.1 µM), 0.281; in assay [2] (first compound 0.3162 µM), 0.176; in assay [2] (first compound 1 µM), 0.234; in assay [3] (first compound 0.01 µM), 0.528; in assay [3] (first compound 0.03162 µM), 0.284. Also, the relative viability in assay [3] (first compound 0.1 µM) is 0.304; in assay [3] (first compound 0.3162 µM), 0.175; in assay [3] (first compound 1 µM), 0.257; in assay [4] (first compound 0.01 µM), 0.39; in assay [4] (first compound 0.03162 µM) it was 0.229; in assay [4] (first compound 0.1 µM), 0.286. For the same cell line, the relative viability was found to be 0.173 in assay [4] (first compound 0.3162 µM) and 0.302 in assay [4] (first compound 1 µM).

In the case of NCI-H2087, the relative viability stood at 0.276 in assay [1] (first compound 0.01 µM); 0.242 in assay [1] (first compound 0.03162 µM); 0.2 in assay [1] (first compound 0.1 µM); 0.189 in assay [1] (first compound 0.3162 µM); 0.162 in assay [1] (first compound 1 µM); 0.77 in assay [2] (first compound 0.01 µM). In addition, the relative viability was 0.606 in assay [2] (first compound 0.03162 µM); 0.577 in assay [2] (first compound 0.1 µM); 0.412 in assay [2] (first compound 0.3162 µM); 0.311 in assay [2] (first compound 1 µM); 0.907 in assay [3] (first compound 0.01 µM); 0.905 in assay [3] (first compound 0.03162 µM). Moreover, the relative viability came to 0.679 in assay [3] (first compound 0.1 µM); 0.411 in assay [3] (first compound 0.3162 µM); 0.367 in assay [3] (first compound 1 µM); 1.21 in assay [4] (first compound 0.01 µM); 0.972 in assay [4] (first compound 0.03162 µM); 0.801 in assay [4] (first compound 0.1 µM). The relative viability in assay [4] (first compound 0.3162 µM) worked out at 0.415; in assay [4] (first compound 1 µM) it was 0.485.

On to LU99A, for which the relative viability in assay [1] (first compound 0.01 µM) is 0.289; in assay [1] (first compound 0.03162 µM), 0.268; in assay [1] (first compound 0.1 µM), 0.2; in assay [1] (first compound 0.3162 µM), 0.198; in assay [1] (first compound 1 µM), 0.21; in assay [2] (first compound 0.01 µM), 0.297. Moreover, the relative viability turned out to be 0.311 in assay [2] (first compound 0.03162 µM); 0.322 in assay [2] (first compound 0.1 µM); 0.264 in assay [2] (first compound 0.3162 µM); 0.254 in assay [2] (first compound 1 µM); 0.316 in assay [3] (first compound 0.01 µM); 0.306 in assay [3] (first compound 0.03162 µM). Besides, the relative viability came to 0.196 in assay [3] (first compound 0.1 µM); 0.203 in assay [3] (first compound 0.3162 µM); 0.184 in assay [3] (first compound 1 µM); 0.517 in assay [4] (first compound 0.01 µM); 0.329 in assay [4] (first compound 0.03162 µM); 0.234 in assay [4] (first compound 0.1 µM). Also, the figures for the relative viability in assay [4] (first compound 0.3162 µM) and in assay [4] (first compound 1 µM) were 0.233 and 0.232, respectively.

Consider NCI-H1355, for which the relative viability in assay [1] (first compound 0.01 µM) was 0.483; in assay [1] (first compound 0.03162 µM), 0.5; in assay [1] (first compound 0.1 µM) it was 0.399; in assay [1] (first compound 0.3162 µM), 0.278; in assay [1] (first compound 1 µM) it was 0.228; in assay [2] (first compound 0.01 µM) it was 0.393. The relative viability in assay [2] (first compound 0.03162 µM) stood at 0.414; in assay [2] (first compound 0.1 µM), 0.372; in assay [2] (first compound 0.3162 µM) it was 0.314; in assay [2] (first compound 1 µM), 0.273; in assay [3] (first compound 0.01 µM), 0.684; in assay [3] (first compound 0.03162 µM), 0.543. The relative viability in assay [3] (first compound 0.1 µM) was determined as 0.354; in assay [3] (first compound 0.3162 µM) it was 0.234; in assay [3] (first compound 1 µM), 0.214; in assay [4] (first compound 0.01 µM) it was 1.12; in assay [4] (first compound 0.03162 µM) it was 0.851; in assay [4] (first compound 0.1 µM), 0.587. Also, the relative viability in assay [4] (first compound 0.3162 µM) and in assay [4] (first compound 1 µM) was 0.231 throughout.

In the case of NCI-H520, the relative viability in assay [1] (first compound 0.01 µM) is 0.381; in assay [1] (first compound 0.03162 µM), 0.305; in assay [1] (first compound 0.1 µM) it was 0.213; in assay [1] (first compound 0.3162 µM), 0.251; in assay [1] (first compound 1 µM) it was 0.192; in assay [2] (first compound 0.01 µM), 0.236. Besides, the relative viability in assay [2] (first compound 0.03162 µM) was found to be 0.254; in assay [2] (first compound 0.1 µM), 0.188; in assay [2] (first compound 0.3162 µM), 0.184; in assay [2] (first compound 1 µM), 0.16; in assay [3] (first compound 0.01 µM), 0.954; in assay [3] (first compound 0.03162 µM), 0.504. The relative viability in assay [3] (first compound 0.1 µM) worked out at 0.198; in assay [3] (first compound 0.3162 µM) it was 0.153; in assay [3] (first compound 1 µM) it was 0.164; in assay [4] (first compound 0.01 µM) it was 0.58; in assay [4] (first compound 0.03162 µM), 0.53; in assay [4] (first compound 0.1 µM), 0.37. Further, the relative viability was 0.195 in assay [4] (first compound 0.3162 µM) and 0.194 in assay [4] (first compound 1 µM).

NCI-H661: the relative viability amounted to 0.329 in assay [1] (first compound 0.01 µM); 0.376 in assay [1] (first compound 0.03162 µM); 0.376 in assay [1] (first compound 0.1 µM); 0.356 in assay [1] (first compound 0.3162 µM); 0.359 in assay [1] (first compound 1 µM); 0.782 in assay [2] (first compound 0.01 µM). Further, the relative viability came to 0.668 in assay [2] (first compound 0.03162 µM); 0.575 in assay [2] (first compound 0.1 µM); 0.41 in assay [2] (first compound 0.3162 µM); 0.341 in assay [2] (first compound 1 µM); 0.567 in assay [3] (first compound 0.01 µM); 0.41 in assay [3] (first compound 0.03162 µM). Besides, the relative viability in assay [3] (first compound 0.1 µM) was 0.516; in assay [3] (first compound 0.3162 µM), 0.253; in assay [3] (first compound 1 µM) it was 0.293; in assay [4] (first compound 0.01 µM) it was 1.06; in assay [4] (first compound 0.03162 µM) it was 1.1; in assay [4] (first compound 0.1 µM) it was 1.07. Further, the relative viability came to 0.634 in assay [4] (first compound 0.3162 µM) and 0.567 in assay [4] (first compound 1 µM).
